The structures appear in SMILES notation.

The IC50 is the concentration that gives 50% inhibition.

The first test addresses T1, NaV1.3 (Homo sapiens, UniProt Q9NY46). Put plainly: Activity against NaV 1.3 channel (VIPR optical membrane potential assay with electrical stimulation). It is filed as cell-based. On the set-up: expressed in transfected cells; host or cells: HEK293.
Conditions: not given
Here is the method: Compounds of the invention are useful as antagonists of voltage-gated sodium ion channels. Antagonist properties of test compounds were assessed as follows. Cells expressing the NaV of interest were placed into microtiter plates. After an incubation period, the cells were stained with fluorescent dyes sensitive to the transmembrane potential. The test compounds were added to the microtiter plate. The cells were stimulated with either a chemical or electrical means to evoke a NaV dependent membrane potential change from unblocked channels, which was detected and measured with trans-membrane potential-sensitive dyes. Antagonists were detected as a decreased membrane potential response to the stimulus. The optical membrane potential assay utilized voltage-sensitive FRET sensors described by Gonzalez and Tsien (See Gonzalez, J. E. and R. Y. Tsien (1995) “Voltage sensing by fluorescence resonance energy transfer in single cells” Biophys J 69(4): 1272-80, and Gonzalez, J. E. and R. Y. Tsien (1997) “Improved indicators of cell membrane potential that use fluorescence resonance energy transfer” Chem Biol 4(4): 269-77) in combination with instrumentation for measuring fluorescence changes such as the Voltage/Ion Probe Reader (VIPR®) (See Gonzalez, J. E., K. Oades, et al. (1999) “Cell-based assays and instrumentation for screening ion-channel targets” Drug Discov Today 4(9): 431-439).
The following is an example of how NaV1.3 inhibition activity is measured using the optical membrane potential method #2. Other subtypes are performed in an analogous mode in a cell line expressing the NaV of interest.
HEK293 cells stably expressing NaV1.3 are plated into 96-well microtiter plates. After an appropriate incubation period, the cells are stained with the voltage sensitive dyes CC2-DMPE/DiSBAC2(3) as follows.
2×CC2-DMPE=20 μM CC2-DMPE: 10 mM CC2-DMPE is vortexed with an equivalent volume of 10% pluronic, followed by vortexing in required amount of HBSS containing 10 mM HEPES. Each cell plate will require 5 mL of 2×CC2-DMPE. 50 μL of 2×CC2-DMPE is to wells containing washed cells, resulting in a 10 μM final staining concentration. The cells are stained for 30 minutes in the dark at RT.
2×DISBAC2(3) with ABSC1=6 μM DISBAC2(3) and 1 mM ABSC1: The required amount of 10 mM DISBAC2(3) is added to a 50 ml conical tube and mixed with 1 μL 10% pluronic for each mL of solution to be made and vortexed together. Then HBSS/HEPES is added to make up 2× solution. Finally, the ABSC1 is added.
The 2×DiSBAC2(3) solution can be used to solvate compound plates. Note that compound plates are made at 2× drug concentration. Wash stained plate again, leaving residual volume of 50 μL. Add 50 uL/well of the 2×DiSBAC2(3) w/ABSC1. Stain for 30 minutes in the dark at RT.
The electrical stimulation instrument and methods of use are described in ION Channel Assay Methods PCT/US01/21652, herein incorporated by reference. The instrument comprises a microtiter plate handler, an optical system for exciting the coumarin dye while simultaneously recording the coumarin and oxonol emissions, a waveform generator, a current- or voltage-controlled amplifier, and a device for inserting electrodes in well. Under integrated computer control, this instrument passes user-programmed electrical stimulus protocols to cells within the wells of the microtiter plate.
Insert or use electrodes into each well to be assayed.
Use the current-controlled amplifier to deliver stimulation wave pulses for 3 s. Two seconds of pre-stimulus recording are performed to obtain the un-stimulated intensities. Five seconds of post-stimulation recording are performed to examine the relaxation to the resting state.
Data are analyzed and reported as normalized ratios of background-subtracted emission intensities measured in the 460 nm and 580 nm channels. Background intensities are then subtracted from each assay channel. […]
Target sequence in this assay (Q9NY46 whole entry): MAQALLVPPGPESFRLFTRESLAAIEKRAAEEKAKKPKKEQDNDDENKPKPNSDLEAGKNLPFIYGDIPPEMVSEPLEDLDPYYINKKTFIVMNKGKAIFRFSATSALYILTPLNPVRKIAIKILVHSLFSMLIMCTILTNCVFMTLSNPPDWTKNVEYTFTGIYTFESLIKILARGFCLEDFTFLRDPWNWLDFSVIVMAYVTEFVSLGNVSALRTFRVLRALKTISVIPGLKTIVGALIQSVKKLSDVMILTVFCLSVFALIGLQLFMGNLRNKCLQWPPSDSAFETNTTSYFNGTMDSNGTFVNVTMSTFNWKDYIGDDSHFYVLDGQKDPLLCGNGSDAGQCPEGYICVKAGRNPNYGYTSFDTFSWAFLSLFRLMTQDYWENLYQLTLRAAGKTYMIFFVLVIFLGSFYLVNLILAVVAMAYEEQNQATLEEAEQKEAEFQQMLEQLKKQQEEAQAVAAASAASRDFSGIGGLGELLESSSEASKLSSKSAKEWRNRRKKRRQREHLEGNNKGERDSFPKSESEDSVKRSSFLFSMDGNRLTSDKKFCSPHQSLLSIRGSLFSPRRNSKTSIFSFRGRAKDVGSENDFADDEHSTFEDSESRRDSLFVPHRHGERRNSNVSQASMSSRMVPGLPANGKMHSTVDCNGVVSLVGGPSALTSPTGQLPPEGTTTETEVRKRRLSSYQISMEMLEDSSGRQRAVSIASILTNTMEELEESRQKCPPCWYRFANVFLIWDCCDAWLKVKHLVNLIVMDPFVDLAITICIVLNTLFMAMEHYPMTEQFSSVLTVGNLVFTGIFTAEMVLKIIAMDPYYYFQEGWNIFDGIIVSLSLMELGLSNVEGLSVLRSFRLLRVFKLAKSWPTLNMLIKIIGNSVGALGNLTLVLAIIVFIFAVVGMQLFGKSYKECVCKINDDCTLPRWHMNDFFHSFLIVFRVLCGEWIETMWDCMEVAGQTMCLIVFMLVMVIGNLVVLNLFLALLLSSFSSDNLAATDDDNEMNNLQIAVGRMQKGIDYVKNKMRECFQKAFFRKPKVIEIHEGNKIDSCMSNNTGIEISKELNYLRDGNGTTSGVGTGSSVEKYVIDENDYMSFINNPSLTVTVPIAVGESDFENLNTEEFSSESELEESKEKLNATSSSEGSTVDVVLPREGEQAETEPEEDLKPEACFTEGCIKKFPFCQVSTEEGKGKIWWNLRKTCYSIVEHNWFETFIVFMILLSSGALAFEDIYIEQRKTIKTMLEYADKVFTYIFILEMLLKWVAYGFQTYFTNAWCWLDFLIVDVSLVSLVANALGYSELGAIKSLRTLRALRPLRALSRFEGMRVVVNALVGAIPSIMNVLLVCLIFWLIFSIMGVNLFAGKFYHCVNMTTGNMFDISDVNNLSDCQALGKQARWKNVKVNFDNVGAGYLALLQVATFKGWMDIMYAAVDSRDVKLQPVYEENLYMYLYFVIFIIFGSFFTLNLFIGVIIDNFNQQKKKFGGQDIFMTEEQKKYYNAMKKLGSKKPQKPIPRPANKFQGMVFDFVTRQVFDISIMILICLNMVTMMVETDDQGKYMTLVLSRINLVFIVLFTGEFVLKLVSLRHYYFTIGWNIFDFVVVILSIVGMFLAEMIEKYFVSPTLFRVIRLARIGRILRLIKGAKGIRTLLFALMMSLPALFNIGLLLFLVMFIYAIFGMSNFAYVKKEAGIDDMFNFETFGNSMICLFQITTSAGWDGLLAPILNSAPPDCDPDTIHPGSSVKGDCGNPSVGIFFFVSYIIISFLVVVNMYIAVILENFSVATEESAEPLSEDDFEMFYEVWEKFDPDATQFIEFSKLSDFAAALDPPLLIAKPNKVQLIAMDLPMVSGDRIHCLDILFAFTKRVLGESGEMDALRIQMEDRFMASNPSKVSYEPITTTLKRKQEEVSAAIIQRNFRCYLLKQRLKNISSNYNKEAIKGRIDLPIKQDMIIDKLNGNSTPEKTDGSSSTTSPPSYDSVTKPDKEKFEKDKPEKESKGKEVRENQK
As to `O=C1Nc2ccc(S(=O)(=O)Nc3nncs3)cc2CC1CCOc1ccc(Cl)cc1Cl` (stereo not shown) [Compound 1], the IC50 lay within 5 to 20 µM.

`O=C1Nc2ccc(S(=O)(=O)Nc3nnc(-c4ccccc4)s3)cc2CC1CCOc1ccc(Cl)cc1Cl` (stereo not shown) [Compound 2]: the concentration for half-maximal inhibition (IC50) is 5 to 20 µM.

With `O=C1Nc2ccc(S(=O)(=O)Nc3nccs3)cc2CC1CCOc1ccc(Cl)cc1Cl` (stereo not shown) [Compound 3], the concentration for half-maximal inhibition (IC50) lay within 5 to 20 µM.

As to `Cc1cc(C)nc(NS(=O)(=O)c2ccc3c(c2)CC(CCOc2ccc(Cl)cc2Cl)C(=O)N3)n1` (stereo not shown) [Compound 4], the IC50 fell in the range of 5 to 20 µM.

Take `O=C1Nc2ccc(S(=O)(=O)Nc3nc4ccccc4s3)cc2CC1CCOc1ccc(Cl)cc1Cl` (stereo not shown) [Compound 5, 3-[2-(2,4-Dichloro-phenoxy)-ethyl]-2-oxo-1,2,3,4-tetrahydro-quinoline-6-sulfonic acid benzothiazol-2-ylamide]: the 50% inhibitory concentration (IC50) lay within 5 to 20 µM.

In the case of `O=C1Nc2ccc(S(=O)(=O)Nc3cnsn3)cc2CC1CCOc1ccc(Cl)cc1Cl` (stereo not shown) [Compound 6], the IC50 lay within 5 to 20 µM.

Consider `Cc1cnc(NS(=O)(=O)c2ccc3c(c2)CC(CCOc2ccc(Cl)cc2Cl)C(=O)N3)s1` (stereo not shown) [Compound 7], for which the IC50 was 5 to 20 µM.

Turning to `O=C1Nc2ccc(S(=O)(=O)Nc3ccccn3)cc2CC1CCOc1ccc(Cl)cc1Cl` (stereo not shown) [Compound 8], the 50% inhibitory concentration (IC50) was in the range of 5 to 20 µM.

With `O=C1Nc2ccc(S(=O)(=O)Nc3nnc(C4CC4)s3)cc2CC1CCOc1ccc(Cl)cc1Cl` (stereo not shown) [Compound 9], the IC50 lay within 5 to 20 µM.

In the case of `Cc1ccnc(NS(=O)(=O)c2ccc3c(c2)CC(CCOc2ccc(Cl)cc2Cl)C(=O)N3)n1` (stereo not shown) [Compound 10, 3-[2-(2,4-Dichloro-phenoxy)-ethyl]-2-oxo-1,2,3,4-tetrahydro-quinoline-6-sulfonic acid (4-methyl-pyrimidin-2-yl)-amide], the concentration for half-maximal inhibition (IC50) lay in the range of 5 to 20 µM.

With `Cc1nnc(NS(=O)(=O)c2ccc3c(c2)CC(CCOc2ccc(Cl)cc2Cl)C(=O)N3)s1` (stereo not shown) [Compound 11, 3-[2-(2,4-Dichloro-phenoxy)-ethyl]-2-oxo-1,2,3,4-tetrahydro-quinoline-6-sulfonic acid (5-methyl-[1,3,4]thiadiazol-2-yl)-amide], the half-maximal inhibitory concentration (IC50) lay in the range of 5 to 20 µM.

As to `O=C1Nc2ccc(S(=O)(=O)Nc3nc(-c4ccccc4)ns3)cc2CC1CCOc1ccc(Cl)cc1Cl` (stereo not shown) [Compound 12], the IC50 lay in the range of 5 to 20 µM.

For `COc1nc(NS(=O)(=O)c2ccc3c(c2)CC(CCOc2ccc(Cl)cc2Cl)C(=O)N3)ns1` (stereo not shown) [Compound 13], the IC50 is 5 to 20 µM.

Regarding `O=C1Nc2ccc(S(=O)(=O)Nc3nc[nH]n3)cc2CC1CCOc1ccc(Cl)cc1Cl` (stereo not shown) [Compound 14], the half-inhibitory concentration (IC50) lay in the range of 5 to 20 µM.

On to `O=C1Nc2ccc(S(=O)(=O)Nc3ncccn3)cc2CC1CCOc1ccc(Cl)cc1Cl` (stereo not shown) [Compound 15], for which the concentration for half-maximal inhibition (IC50) is 5 to 20 µM.

`Cc1csc(NS(=O)(=O)c2ccc3c(c2)CC(CCOc2ccc(Cl)cc2Cl)C(=O)N3)n1` (stereo not shown) [Compound 16]: the IC50 is 5 to 20 µM.

Tested on in a further test: not given
Assay: not given
The conditions noted are these: neuropathic pain, modest efficacy; cited from earlier work.
As for `NCC1(CC(=O)O)CCCCC1` [Gabapentin], the “share of patients in which it works” value is 60%.

The target of another test is NaV1.8 (Homo sapiens, UniProt Q9Y5Y9).
NaV1.8, sequence (Q9Y5Y9 whole entry, looked up): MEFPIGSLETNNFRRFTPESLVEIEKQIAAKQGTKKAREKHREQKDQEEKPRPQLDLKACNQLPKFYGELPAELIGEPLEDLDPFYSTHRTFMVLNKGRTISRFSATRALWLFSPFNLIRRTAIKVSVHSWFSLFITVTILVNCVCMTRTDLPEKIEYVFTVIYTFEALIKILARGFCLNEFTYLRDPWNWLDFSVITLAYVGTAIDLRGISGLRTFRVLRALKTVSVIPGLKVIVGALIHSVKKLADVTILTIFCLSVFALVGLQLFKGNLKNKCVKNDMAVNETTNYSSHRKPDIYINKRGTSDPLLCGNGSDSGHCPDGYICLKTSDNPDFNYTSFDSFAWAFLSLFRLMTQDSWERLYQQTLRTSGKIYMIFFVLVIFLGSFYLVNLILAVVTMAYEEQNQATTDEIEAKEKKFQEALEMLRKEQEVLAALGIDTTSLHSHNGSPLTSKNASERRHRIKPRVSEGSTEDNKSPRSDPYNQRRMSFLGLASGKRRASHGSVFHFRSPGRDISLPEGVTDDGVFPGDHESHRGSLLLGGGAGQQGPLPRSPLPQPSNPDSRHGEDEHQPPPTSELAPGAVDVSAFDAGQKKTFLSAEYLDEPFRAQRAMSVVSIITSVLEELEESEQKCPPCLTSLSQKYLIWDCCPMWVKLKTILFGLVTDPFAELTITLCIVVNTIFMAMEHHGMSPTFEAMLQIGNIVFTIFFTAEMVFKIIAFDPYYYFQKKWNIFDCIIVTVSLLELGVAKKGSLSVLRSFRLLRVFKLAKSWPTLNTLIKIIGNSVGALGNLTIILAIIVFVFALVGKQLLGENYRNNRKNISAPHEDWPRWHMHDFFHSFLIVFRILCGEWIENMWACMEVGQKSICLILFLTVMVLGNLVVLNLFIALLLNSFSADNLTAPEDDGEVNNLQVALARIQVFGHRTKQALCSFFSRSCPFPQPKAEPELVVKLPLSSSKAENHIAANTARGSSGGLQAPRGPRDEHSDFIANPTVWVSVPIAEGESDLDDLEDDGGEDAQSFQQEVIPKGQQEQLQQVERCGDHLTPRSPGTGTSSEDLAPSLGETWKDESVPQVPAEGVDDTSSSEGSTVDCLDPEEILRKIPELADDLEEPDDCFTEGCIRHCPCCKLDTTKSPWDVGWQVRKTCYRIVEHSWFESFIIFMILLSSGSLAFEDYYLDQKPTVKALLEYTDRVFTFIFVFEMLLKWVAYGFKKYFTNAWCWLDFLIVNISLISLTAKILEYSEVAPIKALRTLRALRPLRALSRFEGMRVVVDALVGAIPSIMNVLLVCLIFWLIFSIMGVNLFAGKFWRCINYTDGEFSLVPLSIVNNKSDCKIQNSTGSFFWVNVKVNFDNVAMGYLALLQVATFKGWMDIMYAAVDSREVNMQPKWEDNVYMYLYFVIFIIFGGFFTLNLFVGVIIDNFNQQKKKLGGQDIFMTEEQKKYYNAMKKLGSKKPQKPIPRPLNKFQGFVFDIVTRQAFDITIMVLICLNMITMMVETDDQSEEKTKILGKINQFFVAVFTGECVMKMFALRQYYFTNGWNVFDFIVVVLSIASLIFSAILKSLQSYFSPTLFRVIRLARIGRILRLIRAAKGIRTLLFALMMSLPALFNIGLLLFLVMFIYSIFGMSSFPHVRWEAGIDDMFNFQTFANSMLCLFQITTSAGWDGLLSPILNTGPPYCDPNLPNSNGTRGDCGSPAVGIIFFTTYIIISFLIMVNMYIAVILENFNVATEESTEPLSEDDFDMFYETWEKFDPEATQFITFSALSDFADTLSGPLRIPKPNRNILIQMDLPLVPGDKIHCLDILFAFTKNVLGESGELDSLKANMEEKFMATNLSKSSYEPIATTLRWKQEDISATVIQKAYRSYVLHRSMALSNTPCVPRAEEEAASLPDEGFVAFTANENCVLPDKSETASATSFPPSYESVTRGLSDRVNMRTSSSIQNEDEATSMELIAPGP
Assay: not given
The conditions noted are these: read-out: TTX IC50; cited from earlier work.
As to `NC1=N[C@H](O)[C@H]2[C@H]3O[C@]4(O)O[C@@H]([C@@H](O)[C@@]2(N1)[C@@H]4O)[C@]3(O)CO` [TTX, tetrodotoxin], the half-maximal inhibitory concentration (IC50) is greater than 50 µM.

Another test concerns the target T1, NaV1.3.
Assay: not given
The conditions noted are these: read-out: TTX IC50; cited from earlier work.
Target sequence in this assay (Q9NY46 whole entry, looked up): as the sequence (Q9NY46 whole entry) above
For `NC1=N[C@H](O)[C@H]2[C@H]3O[C@]4(O)O[C@@H]([C@@H](O)[C@@]2(N1)[C@@H]4O)[C@]3(O)CO` [TTX, tetrodotoxin], the concentration for half-maximal inhibition (IC50) is 0.015 µM.
